These results are taken from patent publication US8003137B2, “Extracts of Aristolochia paucinervis pomel and uses thereof” (FasTrack Pharmaceuticals, Inc., priority 2008, dated 2011).

The subject of the data set is human red blood cells. Briefly: Hemolytic activity on heparinized whole blood. In kind it is cell-based. Conditions: 0- to 14-day incubation, all dilutions examined. Here is the method: The hemolytic activity of A. paucinervis pomel extract on blood cells was examined, and compared with the ability of Triton-X to lyse these cells.
To perform these studies, heparinized-whole blood was incubated with dilutions of Triton-X-100 (0-1%) or 5× (4.4 mg/ml) A. paucinervis pomel extract for 40 minutes at room temperature. Plasma was collected after centrifugation at 1200×g for 5 minutes and diluted 1/20 with DPBS. The absorbance at 560 nm of 100 μl of each diluted plasma sample was measured. In a second experiment, the effects of incubating whole blood with dilutions of 5× (4.4 mg/ml) A. paucinervis pomel extract for 0, 3, 7 and 14 days was assessed. Experimental results are shown in FIG. 5A (cells treated with A. paucinervis pomel extract) and FIG. 5B (cells treated with Triton-X-100).

As for Triton-X, the “hemolytic activity on blood cells” value is on record as “toxic to blood cells”.
